{
  "source": "patent US12569437B2",
  "about": "“Disease-site-specific liposomal formulation” (Osaka University, priority 2017, dated 2026)",
  "key": {"[1]": {"test_system": "rat model of ischemia by complete coronary artery ligation", "experiment": "Echocardiography (EF %, % FS) in rat model of ischemia by complete coronary artery ligation", "format": "in vivo", "protocol": "An improvement in the cardiac function against ischemic heart disease and an effect of preventing death from heart failure by intermittent intravenous administration of Formulation 25 (ONO-1301Lipo) or compound (A) (ONO-1301) were analyzed by using the left ventricular ejection fraction (hereinafter referred to as “EF %”), left ventricular fractional shortening (hereinafter referred to as “% FS”), and histological evaluation, based on echocardiography, as indices.\nMale Sprague-Dawley rats (CLEA Japan, Inc., 6 weeks old when arrived) were anesthetized with a liquid mixture of 0.5 mg/kg of midazolam (Dormicum Injection 10 mg, Astellas Pharma Inc.) and 2 mg/kg of xylazine (Celactal 2% injection, Bayer Japan Ltd.). Thereafter, the animal tail veins were secured, and Propofol (1% Diprivan Injection; AstraZeneca K.K.) was continuously infused at 6 to 10 mg/kg/hr with a syringe pump (Terufusion TE-3310N; Terumo Corporation) to maintain deep anesthesia. Thereafter, a tracheal cannula (a cut-down catheter with an outside diameter of 2.0 mm, produced by JMS Co., Ltd.) was inserted and indwelled, and a respirator (for small animals; Shinano Seisakusho) was connected to maintain breathing at a stroke volume of 1 mL/100 g/stroke (±1 mL) and a stroke rate of 70 times/min (±10 times). Thereafter, the animals were fixed in a recumbent position from a dorsal fixed position so that the left chest faced upward, and the epidermis and muscle layer between the third to fourth or fourth to fifth ribs were incised with a surgical knife. After confirming that the knife reached the thoracic cavity, the intercostal space was widened with a rib spreader, and a state in which the anterior descending branch (hereinafter referred to as “LAD”) from the left atrial appendage was directly visible at the front was secured.\nThereafter, the translucent thin pericardium was removed with tweezers to expose the myocardium. Thereafter, the LAD located at the margin of the left atrial appendage was pierced and secured with a nylon thread with a 6-0 or 7-0 needle at a depth of 2 to 3 mm using a microneedle holder, and the LAD was completely ligated. Thereafter, the muscle layer and epidermis were sutured and closed with a 4-0 or 5-0 nylon thread. After the chest was closed, 50 mg of cefamedin was subcutaneously administered to the treatment site, and the treatment was terminated.\nEchocardiography was performed to confirm the cardiac function improving effect of the test substances using the left ventricular ejection fraction (hereinafter referred to as “EF %”) as an index.\nThe test was performed 23 hours after the preparation of the model (test for grouping), the animals whose EF % value decreased by 25% or more of that of normal animals were selected, grouping was performed, and a solution for administration of the test substances was administered by tail vein intravenous administration 24 hours after the preparation of the model. Thereafter, echocardiography was performed 7 and 14 days after the test substance administration."}, "[2]": {"test_system": "spontaneous dilated cardiomyopathy (J2N-k) hamster model", "experiment": "Echocardiography (EF %, % FS) in spontaneous dilated cardiomyopathy hamsters", "format": "in vivo", "conditions": "for % FS Pre / EF % Pre: at grouping; for % FS 4 W / EF % 4 W: week 4; for % FS 8 W / EF % 8 W: week 8", "protocol": "Improvement in the DDS cardiac function in the spontaneous dilated cardiomyopathy (J2N-k) hamster model by intermittent intravenous administration of Formulation 25 and compound (A) (ONO-1301) once every two weeks was evaluated by comparing the left ventricular ejection fraction (hereinafter referred to as “EF %”), left ventricular fractional shortening (hereinafter referred to as “% FS”), and histological evaluation, based on echocardiography, taken as indices. As a positive control, a group in which compound (A) (ONO-1301) was repeatedly orally administered twice daily was created.\nAs a test substance, Formulation 25 was used by suspending and diluting with physiological saline. Compound (A) (ONO-1301) as a control was used by dissolving in an equivalent amount of aqueous NaOH, and diluting with physiological saline. For groups of oral administration of compound (A) (ONO-1301), administration was performed as a suspension in a 0.5% CMC-Na aqueous solution.\nThe spontaneous dilated cardiomyopathy (J2N-k) male hamsters, 20 weeks old at the start of administration, Japan SLC, Inc., were administered with the test substances for 8 weeks, and used for comparison.\nAnimals arrived at the age of 18 weeks were subjected to a 2-week quarantine/acclimation period, and then to the test at the time of grouping (test start date) at the age of 20 weeks. Thereafter, tests were conducted 4 and 8 weeks after the test start date, and dissection was performed 8 weeks after the test start date.\nEchocardiography was performed at the time of grouping, and at week 4 and week 8 after the start of administration. The measurement was performed 3 times for each individual, and the average value of the measured data was referred to as the measurement results."}, "[3]": {"experiment": "Body weight and heart weight in rat myocardial ischemia model", "format": "in vivo", "protocol": "Dissection was performed after the completion of the echocardiography at day 14 after the administration of the test substance. For dissection, all of the blood was collected from the abdominal aorta, and the rats were euthanized under isoflurane anesthesia; thereafter, the heart was removed and weighed. After measuring the heart weight, the infarct area, including the left and right ventricles, was divided into three parts along the short axis."}, "[4]": {"experiment": "Body weight and heart and lung weights in J2N-k hamsters", "format": "in vivo, hamster", "conditions": "for Body weight (g) at dissection: week 8", "protocol": "Dissection was performed as follows. After all of the blood was collected from the abdominal aorta, and the hamsters were euthanized under isoflurane anesthesia, the heart and lungs were removed and weighed. After the weights thereof were measured, the removed parts, including the left and right ventricles, were divided into three parts; i.e., apical, middle, and basal parts, at intervals of about 2 mm along the short axis.\nTables 26 and 27 show the body weight change at the time of grouping and at the time of dissection, and the weights of heart and lung at the time of dissection."}, "[5]": {"conditions": "3.0 mg/kg single i.v. 24 hours after infarction, day 7"}, "[6]": {"conditions": "3.0 mg/kg single i.v. 24 hours after infarction, day 14"}, "[7]": {"conditions": "group 3.0 mg/kg single i.v., 23 hours after LAD ligation, before administration"}, "[8]": {"conditions": "3.0 mg/kg intravenous once/2 weeks"}},
  "note": "Marks after values point to notes of the source that are not given here.",
  "data": [
    {"smiles": "O=C(O)COc1cccc2c1CCC=C2CCO/N=C(\\c1ccccc1)c1cccnc1", "note": "[Compound (A), ({5-[2-({[(1E)-phenyl(pyridin-3-yl)methylene]amino}oxy)ethyl]-7,8-dihydronaphthalen-1-yl}oxy)acetic acid]", "values": [
      {"measurement": "% FS 1 W", "setting": "[1]; [5]", "value": "25.4 ± 5.6", "unit": "%"},
      {"measurement": "EF % 1 W", "setting": "[1]; [5]", "value": "54.6 ± 8.8", "unit": "%"},
      {"measurement": "% FS 2 W", "setting": "[1]; [6]", "value": "24.5 ± 4.4", "unit": "%"},
      {"measurement": "EF % 2 W", "setting": "[1]; [6]", "value": "53.2 ± 7.1", "unit": "%"},
      {"measurement": "% FS Pre", "setting": "[1]; [7]", "value": "26.5 ± 3.7", "unit": "%"},
      {"measurement": "EF % Pre", "setting": "[1]; [7]", "value": "56.7 ± 5.5", "unit": "%"},
      {"measurement": "% FS Pre", "setting": "[2]; [8]", "value": "16.0 ± 2.1", "unit": "%"},
      {"measurement": "EF % Pre", "setting": "[2]; [8]", "value": "38.8 ± 4.3", "unit": "%"},
      {"measurement": "% FS 4 W", "setting": "[2]; [8]", "value": "16.1 ± 3.1", "unit": "%"},
      {"measurement": "EF % 4 W", "setting": "[2]; [8]", "value": "35.7 ± 7.4", "unit": "%"},
      {"measurement": "% FS 8 W", "setting": "[2]; [8]", "value": "12.3 ± 1.3^a %"},
      {"measurement": "EF % 8 W", "setting": "[2]; [8]", "value": "30.8 ± 2.9^a %"},
      {"measurement": "% FS Pre", "setting": "[2]; 3.0 mg/kg p.o. twice/day", "value": "18.2 ± 3.9", "unit": "%"},
      {"measurement": "EF % Pre", "setting": "[2]; 3.0 mg/kg p.o. twice/day", "value": "43.0 ± 7.8", "unit": "%"},
      {"measurement": "% FS 4 W", "setting": "[2]; 3.0 mg/kg p.o. twice/day", "value": "17.2 ± 7.2", "unit": "%"},
      {"measurement": "EF % 4 W", "setting": "[2]; 3.0 mg/kg p.o. twice/day", "value": "40.4 ± 14.9", "unit": "%"},
      {"measurement": "% FS 8 W", "setting": "[2]; 3.0 mg/kg p.o. twice/day", "value": "17.1 ± 4.5", "unit": "%"},
      {"measurement": "EF % 8 W", "setting": "[2]; 3.0 mg/kg p.o. twice/day", "value": "40.3 ± 9.2", "unit": "%"},
      {"measurement": "Body weight (g) At dissection", "setting": "[3]; 3.0 mg/kg single i.v., day 14", "value": "406.7 ± 37.4", "unit": "g"},
      {"measurement": "Body weight (g) Before drug administration", "setting": "[3]; group 3.0 mg/kg single i.v.", "value": "325.1 ± 22.3", "unit": "g"},
      {"measurement": "Body weight (g) Before preparation of AMI", "setting": "[3]; group 3.0 mg/kg single i.v.", "value": "339.7 ± 13.6", "unit": "g"},
      {"measurement": "Body weight (g) at dissection", "setting": "[4]; 3.0 mg/kg i.v. once/2 weeks", "value": "144.4 ± 13.3", "unit": "g"},
      {"measurement": "Body weight (g) at dissection", "setting": "[4]; 3.0 mg/kg p.o. twice/day", "value": "128.6 ± 3.0", "unit": "g"},
      {"measurement": "Body weight (g) Before drug administration", "setting": "[4]; group 3.0 mg/kg i.v. once/2 weeks", "value": "128.7 ± 10.4", "unit": "g"},
      {"measurement": "Body weight (g) Before drug administration", "setting": "[4]; group 3.0 mg/kg p.o. twice/day", "value": "118.8 ± 9.6", "unit": "g"}
    ]}
  ]
}
